Values belong to the molecule of their own block, whether it stands above or below them.
Legend:
[1] = Stability in DMSO / d6-DMSO at room temperature (LCMS, 1H and 19F NMR); type: physicochemical; details: for stability of DMSO stock solution (in words): LCMS
Procedure: Key to this was running LCMS analysis on a d6-DMSO NMR sample that was left at room temperature for 6 weeks. Despite also degrading into the carboxylic acid 12, the mass of the other species was different by +6 Daltons compared to the non-deuterated sample. […] To monitor the speed of degradation, a fresh sample was analysed periodically by ^1H and ^19F NMR spectroscopy (Figure 4).

acid ceramidase [2] = target: T1, acid ceramidase (Homo sapiens, UniProt Q13510); assay: Preincubation acid ceramidase activity assay; type: biochemical; details: pre-incubated at 0, 1 and 3 h at IC50 concentration, 37°C
T1 construct: if using cell lysate, each well contained 7.45 µL assay buffer; endogenous in cells; host or cells: HEK293 cell lysate (supernatant after freeze-thaw and homogenisation)
T1 sequence (Q13510 22-395): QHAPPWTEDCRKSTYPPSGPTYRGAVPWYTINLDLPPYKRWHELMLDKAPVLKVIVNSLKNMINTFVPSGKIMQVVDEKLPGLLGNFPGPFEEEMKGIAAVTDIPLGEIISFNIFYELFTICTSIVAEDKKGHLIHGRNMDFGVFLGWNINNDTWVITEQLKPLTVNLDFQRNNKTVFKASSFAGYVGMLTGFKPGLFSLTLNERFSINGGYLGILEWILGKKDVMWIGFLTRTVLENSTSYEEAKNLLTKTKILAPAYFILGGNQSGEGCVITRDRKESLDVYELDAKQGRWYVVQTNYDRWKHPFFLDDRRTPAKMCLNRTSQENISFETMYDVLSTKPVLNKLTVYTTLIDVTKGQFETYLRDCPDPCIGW
Source text: A partially degraded sample was purified by reverse-phase chromatography to isolate the DMSO-addition species. Although only a small amount of material was isolated, ^1H NMR spectroscopic analysis was consistent with the proposed structure (Scheme 3). The ^1H NMR data, in particular, were in line with that reported for a related compound (3f, see Supplementary Material). Such reactivity has been reported between N-pivaloyloxybenzamides and sulfoxides in the presence of an iron catalyst. The decomposition reaction to form a sulfoximine reported in this paper should be of interest to the synthetic community as it proceeds cleanly at ambient temperature without the need for reagents nor a catalyst; however, further optimisation of the reaction is beyond the scope of this paper.
Cultured HEK293 cells were grown until 80-90% confluency, collected, and washed twice in PBS. Collected cell pellets were resuspended in 0.2 M sucrose solution and freeze-thawed three times before being homogenised using a syringe and 25 G needle. […] The supernatant was collected, and protein quantified using Bradford reagent. […]
To measure acid ceramidase activity, an assay previously described by Bedia et al., (2010) was miniaturised to a 384-well format. […] Fluorescence was measured using a microplate reader (PHERAstar FSX; BMG Labtech) at excitation and emission wavelengths of 350 nm and 450 nm […]

[3] = Reactivity with the amino acid cysteine (LCMS); type: physicochemical; details: LCMS analysis
Source text: Almost all reported small-molecule inhibitors of acid ceramidase are covalent in their mechanism of action by reaction with cysteine 143 [14, 15, 16, 17, 18, 19, 20, 21, 22]. In some cases, the covalent warhead itself is linked to promiscuity and intrinsic chemical instability. To probe whether 1 was chemically reactive in this way, a sample was stirred with the amino acid cysteine.

acid ceramidase [4] = target: T1, acid ceramidase; assay: purified protein acid ceramidase inhibition assay; type: biochemical; details: freshly synthesised sample
Procedure: (§1) Acid ceramidase activity assay
(§2) To measure acid ceramidase activity, an assay previously described by Bedia et al., (2010) was miniaturised to a 384-well format. The enzymatic assay was carried out in black flat bottom 384-well plates. Briefly, if using cell lysate, each well contained 7.45 µL assay buffer (25 mM sodium acetate pH 4.5) and 0.05 µL 4 mM RBM14-C12 (Avanti, USA) in ethanol (20 µM final substrate concentration), 2 µg protein in 2.4 µL 0.2 M sucrose, and 0.1 µL compound (control wells contained 0.1 µL DMSO). If using purified acid ceramidase protein (Peak Proteins), the experimental set up was similar, but 100 nM protein was used, and the assay buffer contained 25 mM sodium acetate pH 4.5, 0.1% Pluronic F-127, 0.5 mM EGTA, 0.05% BSA, 1 mM TCEP. Blank wells contained the same reaction mixes but without the protein samples. The reaction started upon addition of the protein sample. The plate was incubated at 37°C for 3 h. The reaction was stopped upon addition of 10 µL fresh detection mix (2.5 mg/mL NaIO4 in 100 mM glycine/NaOH buffer pH 10.6) and the plate incubated for […]

acid ceramidase [5] = target: T1, acid ceramidase; assay: in-house cell lysate acid ceramidase inhibition assay (HEK293 cell lysate, RBM14-C12 substrate); type: biochemical
Procedure: Cultured HEK293 cells were grown until 80-90% confluency, collected, and washed twice in PBS. Collected cell pellets were resuspended in 0.2 M sucrose solution and freeze-thawed three times before being homogenised using a syringe and 25 G needle. Lysed cells were centrifuged at 17,000 g for 30 min at 4°C. The supernatant was collected, and protein quantified using Bradford reagent.
as §1, §2

acid ceramidase [6] = target: T1, acid ceramidase; assay: HTS acid ceramidase assay (modified reported assay, without Saposin D); type: biochemical
Source text: Despite continuing advances in structure-driven research, High-Throughput Screening (HTS) is still a valuable resource to find novel chemical starting points in drug discovery. Recently, the Medicines Discovery Institute initiated an HTS looking for small-molecule inhibitors of acid ceramidase, a lysosomal enzyme. […] This substantial increase in potency can be explained by the fact that to function properly, acid ceramidase requires a co-factor present in cells which was not present in the original HTS assay, Saposin D [4].

[7] = cell lysate assay, supplied (HTS library) samples, read-out: IC50

- stability of DMSO stock solution (in words) [1]: slowly degraded into two species
- estimated half-life ([1]; d6-DMSO, room temperature, 1H and 19F NMR integrations against time): just over two days
- IC50 (acid ceramidase [4]): 163 nM
- IC50 (acid ceramidase [5]; cell lysate assay with addition of EDTA, read-out: IC50): 7 nM
- IC50 (acid ceramidase [5]; cell lysate assay with addition of N,N,N′,N′-tetrakis(2-pyridinylmethyl)-1,2-ethanediamine (Zn2+ chelator), read-out: IC50): 8 nM
- IC50 (acid ceramidase [5]; cell lysate assay, freshly synthesised sample, read-out: IC50): 3.2 nM
- IC50 (acid ceramidase [5]; [7]): 11 nM
- IC50 (acid ceramidase [6]; library sample): 340 nM
Structure (SMILES): O=C(NOC(=O)c1ccc(N2CCCCCC2)c([N+](=O)[O-])c1)c1ccc(OC(F)F)cc1 [compound 1]
- inhibition after pre-incubation (in words) (acid ceramidase [2]): time-dependent inhibition pattern expected of a covalent inhibitor
- stability when stirred with cysteine (in words) [3]: slowly decomposed into two main chemical species

- IC50 (acid ceramidase [5]; [7]): 237 nM
- inhibition (in words) (acid ceramidase [6]; Figure 1): moderate inhibition
Structure (SMILES): CC(C)(C)c1ccc(C(=O)NOC(=O)c2ccc(Cl)c(Cl)c2)cc1 [compound 2]

Structure (SMILES): O=C=Nc1ccc(OC(F)F)cc1 [compound 7]
- stability of DMSO stock solution (in words) [1]: fully hydrolysed to 8
- IC50 (acid ceramidase [5]): ~100000 nM

- IC50 (acid ceramidase [5]; cell lysate assay, read-out: IC50): ~100000 nM
Structure (SMILES): O=C(Nc1ccc(OC(F)F)cc1)Nc1ccc(OC(F)F)cc1 [compound 8]

- activity (in words) (acid ceramidase [5]; cell lysate assay): inactive
Structure (SMILES): O=C(O)c1ccc(N2CCCCCC2)c([N+](=O)[O-])c1 [compound 12]

- activity (in words) (acid ceramidase [5]; cell lysate assay): no activity
Structure (SMILES): CS(C)(=O)=NC(=O)c1ccc(OC(F)F)cc1 [compound 13]

— publication PMC11548001, “Beware of N-Benzoyloxybenzamides” (Molecules, 2024)
